Experimental data as given in publication PMC3388080 (PLoS ONE, 2012).

What was measured:
5-HT2C (h) = target: T1, 5-HT2C (h) (Homo sapiens, UniProt P28335); assay: CEREP radioligand binding
T1 construct: purchased CEREP
Protocol: (§1) SB-334867 was evaluated in a selectivity screen performed at CEREP (Paris, France). The screen consisted of binding assays on a panel of 79 target receptors. The specific binding (SB) of a radioligand to each target receptor was defined as the difference between the total binding and the nonspecific binding determined in the presence of a cold competitor in excess. […] Details on the CEREP screen are available from www.cerep.fr.

CCKA (h) (CCK1) = target: T2, CCKA (h) (CCK1) (Homo sapiens, UniProt P32238); assay: CEREP radioligand binding; settings: % of control specific binding
T2 construct: purchased CEREP
T2 sequence (P32238 whole entry): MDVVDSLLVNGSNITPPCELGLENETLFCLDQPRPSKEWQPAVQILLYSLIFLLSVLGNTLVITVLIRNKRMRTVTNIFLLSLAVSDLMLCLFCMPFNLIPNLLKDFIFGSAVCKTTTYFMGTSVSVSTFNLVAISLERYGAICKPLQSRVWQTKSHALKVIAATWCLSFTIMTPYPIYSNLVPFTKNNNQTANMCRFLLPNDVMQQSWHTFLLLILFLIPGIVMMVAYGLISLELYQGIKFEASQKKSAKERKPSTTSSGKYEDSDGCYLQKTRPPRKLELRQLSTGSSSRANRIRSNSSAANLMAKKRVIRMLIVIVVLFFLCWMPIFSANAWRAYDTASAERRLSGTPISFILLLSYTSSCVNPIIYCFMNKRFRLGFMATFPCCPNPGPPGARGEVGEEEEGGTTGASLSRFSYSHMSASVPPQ
Protocol: as §1

5-HT1B = target: T3, 5-HT1B (Rattus norvegicus, UniProt P28564); assay: CEREP radioligand binding; settings: % of control specific binding
T3 construct: purchased CEREP
T3 sequence (P28564 whole entry): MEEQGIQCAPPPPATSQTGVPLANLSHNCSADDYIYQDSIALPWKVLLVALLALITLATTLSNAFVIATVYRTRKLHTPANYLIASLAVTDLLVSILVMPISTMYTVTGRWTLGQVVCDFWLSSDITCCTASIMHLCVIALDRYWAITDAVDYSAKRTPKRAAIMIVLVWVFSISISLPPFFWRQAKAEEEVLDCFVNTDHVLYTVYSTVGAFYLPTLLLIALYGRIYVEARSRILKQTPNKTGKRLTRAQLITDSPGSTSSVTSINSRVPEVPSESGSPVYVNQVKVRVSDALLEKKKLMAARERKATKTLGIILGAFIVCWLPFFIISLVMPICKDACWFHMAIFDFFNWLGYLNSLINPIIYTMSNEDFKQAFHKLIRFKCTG
Protocol: as §1

5-HT3 (h) = target: T4, 5-HT3 (h) (Homo sapiens, UniProt P46098); assay: CEREP radioligand binding; settings: % of control specific binding
T4 construct: purchased CEREP
T4 sequence (P46098 24-478): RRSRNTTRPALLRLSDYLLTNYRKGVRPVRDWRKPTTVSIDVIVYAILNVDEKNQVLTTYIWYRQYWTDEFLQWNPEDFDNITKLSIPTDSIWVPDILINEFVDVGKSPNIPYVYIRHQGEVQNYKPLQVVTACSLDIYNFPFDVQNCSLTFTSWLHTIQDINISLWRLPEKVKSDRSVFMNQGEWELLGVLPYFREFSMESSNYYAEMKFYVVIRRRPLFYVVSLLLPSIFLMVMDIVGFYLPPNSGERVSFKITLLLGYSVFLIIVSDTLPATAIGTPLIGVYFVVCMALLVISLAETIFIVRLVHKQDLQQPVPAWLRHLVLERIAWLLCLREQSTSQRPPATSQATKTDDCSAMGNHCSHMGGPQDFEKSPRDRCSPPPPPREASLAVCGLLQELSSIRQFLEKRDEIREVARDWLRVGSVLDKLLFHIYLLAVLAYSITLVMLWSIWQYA
Protocol: as §1

BZD (peripheral) = target: T5, BZD (peripheral) (Rattus norvegicus, UniProt P16257); assay: CEREP radioligand binding; settings: % of control specific binding
T5 construct: purchased CEREP
T5 sequence (P16257 whole entry): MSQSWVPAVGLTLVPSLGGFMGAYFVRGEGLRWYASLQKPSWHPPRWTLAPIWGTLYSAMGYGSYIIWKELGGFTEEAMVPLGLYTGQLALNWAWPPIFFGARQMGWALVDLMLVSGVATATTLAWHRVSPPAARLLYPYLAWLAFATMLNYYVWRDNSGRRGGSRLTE
Protocol: as §1

SK+Ca channel = assay: CEREP radioligand binding; settings: % of control specific binding
Protocol: as §1

TRH1 (h) = target: T6, TRH1 (h) (Homo sapiens, UniProt P34981); assay: CEREP radioligand binding; settings: % of control specific binding
T6 construct: purchased CEREP
T6 sequence (P34981 whole entry): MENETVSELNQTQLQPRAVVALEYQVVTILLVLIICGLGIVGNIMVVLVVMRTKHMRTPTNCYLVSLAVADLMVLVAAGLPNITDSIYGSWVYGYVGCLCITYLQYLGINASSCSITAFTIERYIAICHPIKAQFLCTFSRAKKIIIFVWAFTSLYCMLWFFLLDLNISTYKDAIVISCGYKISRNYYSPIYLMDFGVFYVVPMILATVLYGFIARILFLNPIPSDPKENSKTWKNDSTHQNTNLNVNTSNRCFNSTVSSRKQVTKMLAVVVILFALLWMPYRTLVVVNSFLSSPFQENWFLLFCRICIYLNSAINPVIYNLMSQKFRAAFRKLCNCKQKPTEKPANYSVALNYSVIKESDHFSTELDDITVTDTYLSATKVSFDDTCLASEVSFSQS
Protocol: as §1

delta 2 (h) (DOP) = target: T7, delta 2 (h) (DOP) (Homo sapiens, UniProt P41143); assay: CEREP radioligand binding; settings: % of control specific binding
T7 construct: purchased CEREP
T7 sequence (P41143 whole entry): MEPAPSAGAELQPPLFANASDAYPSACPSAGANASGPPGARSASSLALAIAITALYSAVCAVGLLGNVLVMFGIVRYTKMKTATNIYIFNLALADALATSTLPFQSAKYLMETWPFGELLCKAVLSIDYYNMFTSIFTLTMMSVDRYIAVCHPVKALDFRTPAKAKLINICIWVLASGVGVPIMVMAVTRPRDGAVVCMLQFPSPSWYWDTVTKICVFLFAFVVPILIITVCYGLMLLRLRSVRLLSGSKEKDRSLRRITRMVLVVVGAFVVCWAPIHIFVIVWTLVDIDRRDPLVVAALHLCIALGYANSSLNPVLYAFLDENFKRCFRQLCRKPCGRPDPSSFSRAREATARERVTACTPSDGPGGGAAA
Protocol: as §1

5-HT5A (h) = target: T8, 5-HT5A (h) (Homo sapiens, UniProt P47898); assay: CEREP radioligand binding; settings: % of control specific binding
T8 construct: purchased CEREP
T8 sequence (P47898 whole entry): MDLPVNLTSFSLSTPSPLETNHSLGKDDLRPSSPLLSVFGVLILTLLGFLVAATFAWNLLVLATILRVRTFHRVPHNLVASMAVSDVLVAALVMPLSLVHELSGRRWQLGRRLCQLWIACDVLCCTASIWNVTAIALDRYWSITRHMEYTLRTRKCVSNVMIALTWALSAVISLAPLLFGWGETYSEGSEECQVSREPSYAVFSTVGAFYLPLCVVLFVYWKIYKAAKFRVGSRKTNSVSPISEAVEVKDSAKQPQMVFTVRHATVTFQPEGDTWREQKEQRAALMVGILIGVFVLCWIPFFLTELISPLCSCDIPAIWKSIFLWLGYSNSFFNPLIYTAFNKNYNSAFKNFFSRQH
Protocol: as §1

TXA2/PGH2 (h) (TP) = target: T9, TXA2/PGH2 (h) (TP) (Homo sapiens, UniProt P21731); assay: CEREP radioligand binding; settings: % of control specific binding
T9 construct: purchased CEREP
T9 sequence (P21731 whole entry): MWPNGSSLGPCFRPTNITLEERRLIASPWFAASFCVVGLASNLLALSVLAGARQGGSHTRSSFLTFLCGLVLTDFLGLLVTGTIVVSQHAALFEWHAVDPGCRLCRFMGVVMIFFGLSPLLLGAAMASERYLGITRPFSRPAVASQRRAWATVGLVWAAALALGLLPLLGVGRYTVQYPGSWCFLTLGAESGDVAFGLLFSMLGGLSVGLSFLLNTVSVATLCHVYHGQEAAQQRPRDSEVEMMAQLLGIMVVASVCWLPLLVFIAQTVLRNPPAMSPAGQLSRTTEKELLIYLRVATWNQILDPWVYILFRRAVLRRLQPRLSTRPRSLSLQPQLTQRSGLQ
Protocol: as §1

M5 (h) = target: T10, M5 (h) (Homo sapiens, UniProt P08912); assay: CEREP radioligand binding; settings: % of control specific binding
T10 construct: purchased CEREP
T10 sequence (P08912 whole entry): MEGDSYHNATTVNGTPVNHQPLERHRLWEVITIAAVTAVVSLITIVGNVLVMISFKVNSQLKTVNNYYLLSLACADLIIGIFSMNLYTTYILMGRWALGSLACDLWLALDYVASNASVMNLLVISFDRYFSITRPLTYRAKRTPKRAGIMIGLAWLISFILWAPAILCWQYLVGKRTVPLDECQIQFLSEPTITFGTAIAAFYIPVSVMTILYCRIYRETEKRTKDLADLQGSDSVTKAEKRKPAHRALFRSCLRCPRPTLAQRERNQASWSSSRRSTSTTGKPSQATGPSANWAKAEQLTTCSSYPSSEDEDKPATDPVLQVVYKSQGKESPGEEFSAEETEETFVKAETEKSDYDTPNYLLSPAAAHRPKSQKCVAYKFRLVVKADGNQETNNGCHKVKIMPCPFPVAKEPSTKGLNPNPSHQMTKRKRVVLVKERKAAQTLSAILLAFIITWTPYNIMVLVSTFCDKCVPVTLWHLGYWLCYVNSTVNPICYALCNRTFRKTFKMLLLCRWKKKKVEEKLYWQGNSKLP
Protocol: as §1

5-HT6 (h) = target: T11, 5-HT6 (h) (Homo sapiens, UniProt P50406); assay: CEREP radioligand binding; settings: % of control specific binding
T11 construct: purchased CEREP
T11 sequence (P50406 whole entry): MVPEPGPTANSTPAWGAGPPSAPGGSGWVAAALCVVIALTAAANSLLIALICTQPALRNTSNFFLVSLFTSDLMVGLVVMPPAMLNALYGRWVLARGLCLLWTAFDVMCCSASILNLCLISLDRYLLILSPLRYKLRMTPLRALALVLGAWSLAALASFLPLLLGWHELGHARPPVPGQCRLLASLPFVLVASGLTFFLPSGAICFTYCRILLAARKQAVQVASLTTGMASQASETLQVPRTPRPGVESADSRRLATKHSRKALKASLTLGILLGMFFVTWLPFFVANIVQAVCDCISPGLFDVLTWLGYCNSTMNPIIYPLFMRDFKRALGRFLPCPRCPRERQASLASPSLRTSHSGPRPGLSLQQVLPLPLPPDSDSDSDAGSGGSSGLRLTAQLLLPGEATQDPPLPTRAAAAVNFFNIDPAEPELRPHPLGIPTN
Protocol: as §1

GAL2 (h) = target: T12, GAL2 (h) (Homo sapiens, UniProt O43603); assay: CEREP radioligand binding; settings: % of control specific binding
T12 construct: purchased CEREP
T12 sequence (O43603 whole entry): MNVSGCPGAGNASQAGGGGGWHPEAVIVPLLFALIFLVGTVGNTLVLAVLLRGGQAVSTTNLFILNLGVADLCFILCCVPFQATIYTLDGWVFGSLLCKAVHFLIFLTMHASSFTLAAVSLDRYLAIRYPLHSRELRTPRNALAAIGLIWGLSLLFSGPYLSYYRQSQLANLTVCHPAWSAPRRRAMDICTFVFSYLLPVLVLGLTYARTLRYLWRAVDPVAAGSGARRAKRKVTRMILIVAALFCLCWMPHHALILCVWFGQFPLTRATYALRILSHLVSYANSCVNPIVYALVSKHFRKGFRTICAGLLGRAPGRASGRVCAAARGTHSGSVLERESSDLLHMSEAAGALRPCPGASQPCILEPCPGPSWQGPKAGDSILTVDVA
Protocol: as §1

Cl- channel = assay: CEREP radioligand binding; settings: % of control specific binding
Protocol: as §1

hHCRTR2 = target: hHCRTR2; set-up: method as in PMID 9821961; settings: 37°C; cited from earlier work
in vivo = settings: male, Sprague-Dawley, rat
Protocol: This study was performed at F. Hoffmann-La Roche. Sixty-five male Sprague-Dawley rats, housed 5 per cage (light onset: 12∶00), were injected intraperitoneally (ip) with either vehicle (1.25% hydroxypropyl methylcellulose (HPMC), 0.1% docusate sodium) or almorexant (30 mg/kg in 1.25% HPMC, 0.1% docusate sodium) at the mid-dark phase (ZT18; i.e., 6 h after lights-off), and returned to their home cage. Groups (n = 5 per group) of vehicle- or almorexant-treated animals were then sacrificed by decapitation 0.5, 2, 4, 8 or 12 h after the injection. An extra group of non-injected rats (n = 5) was also sampled at ZT18. Plasma was collected and stored at −80°C until assayed. Brains were rapidly dissected, frozen on dry ice, and stored at −80°C. Series of coronal brain sections (14 µm) were cut in a cryostat through the posterior hypothalamus (tuberomammillary nucleus level: 3.8 to 4.2 mm posterior to bregma) and the brain stem (dorsal raphe nucleus level: 7.3 to 8 mm posterior to bregma; locus coeruleus level: −9.3 to −10 mm posterior to bregma), thaw-mounted (6 sections per slide) and stored at −20°C. After sectioning, the remaining pieces of brain were kept at −80°C for later determination of almorexant brain concentration. The brain and plasma concentrations of almorexant were determined by quantitative liquid chromatography/mass spectrometry/mass spectrometry (LC/MS/MS).

T1 sequence (P28335 33-458): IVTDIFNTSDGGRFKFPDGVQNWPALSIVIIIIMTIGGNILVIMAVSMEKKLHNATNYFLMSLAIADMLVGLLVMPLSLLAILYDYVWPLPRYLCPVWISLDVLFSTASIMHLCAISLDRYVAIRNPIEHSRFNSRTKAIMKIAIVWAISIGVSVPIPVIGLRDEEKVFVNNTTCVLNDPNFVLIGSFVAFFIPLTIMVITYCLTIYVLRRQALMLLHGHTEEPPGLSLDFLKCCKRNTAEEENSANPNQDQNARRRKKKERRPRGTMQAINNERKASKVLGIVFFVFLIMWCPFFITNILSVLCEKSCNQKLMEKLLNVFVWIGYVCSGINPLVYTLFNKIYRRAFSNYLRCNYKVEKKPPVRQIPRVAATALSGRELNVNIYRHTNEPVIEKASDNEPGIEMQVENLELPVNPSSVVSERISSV

Row | SMILES | displacement of specific binding (5-HT2C (h); 10 µM, 5HT2C (serotonin 2C)) [%] | % Control (10 µM) Mean SB (5-HT2C (h); % of control specific binding) [%] | % Control (10 µM) Mean SB (CCKA (h) (CCK1)) [%] | % Control (10 µM) Mean SB (5-HT1B) [%] | % Control (10 µM) Mean SB (5-HT3 (h)) [%] | % Control (10 µM) Mean SB (BZD (peripheral)) [%] | % Control (10 µM) Mean SB (SK+Ca channel) [%] | % Control (10 µM) Mean SB (TRH1 (h)) [%] | % Control (10 µM) Mean SB (delta 2 (h) (DOP)) [%] | % Control (10 µM) Mean SB (5-HT5A (h)) [%] | % Control (10 µM) Mean SB (TXA2/PGH2 (h) (TP)) [%] | % Control (10 µM) Mean SB (M5 (h)) [%] | % Control (10 µM) Mean SB (5-HT6 (h)) [%] | % Control (10 µM) Mean SB (GAL2 (h)) [%] | % Control (10 µM) Mean SB (Cl- channel) [%] | Ki (hHCRTR2) [nM] | time at which half-maximal concentrations were achieved (in vivo) | Kp at 0.5 h (in vivo; ip, 30 mg/kg)
1 | Cc1nc2ccc(NC(=O)Nc3ccnc4cccnc34)cc2o1.Cl [SB-334867, 1-(2-methylbenzoxazol-6-yl)-3-[1], [5]naphthyridin-4-yl-urea hydrochloride] | 70 | 30.4 | 108.8 | 85.9 | 93.9 | 109.3 | 114.4 | 118.5 | 86.1 | 84.1 | 98.8 | 103.3 | 102.9 | 97.3 | 90.6 |  |  | 
2 | CNC(=O)[C@@H](c1ccccc1)N1CCc2cc(OC)c(OC)cc2[C@@H]1CCc1ccc(C(F)(F)F)cc1 [almorexant, (2R)-2-[(1S)-6,7-Dimethoxy-1-[2-(4-trifluoromethyl-phenyl)-ethyl]-3,4-dihydro-1H-isoquinolin-2-yl]-N-methyl-2-phenyl-acetamide] |  |  |  |  |  |  |  |  |  |  |  |  |  |  |  | 0.9 | 4 and 6 | 0.28
